This passage reports Ki results from patent US9226916B2, “Pyrrolidine derivatives” (HOFFMANN-LA ROCHE INC., priority 2009, dated 2016).

Read-outs that look alike come from different tables or passages of the source.

This experiment has as its target T1, recombinant human NK3 receptor (Homo sapiens, UniProt P29371).
T1 construct: expressed in transfected cells; host or cells: HEK293 cells, transient expression; membranes
T1 sequence (P29371 1-465): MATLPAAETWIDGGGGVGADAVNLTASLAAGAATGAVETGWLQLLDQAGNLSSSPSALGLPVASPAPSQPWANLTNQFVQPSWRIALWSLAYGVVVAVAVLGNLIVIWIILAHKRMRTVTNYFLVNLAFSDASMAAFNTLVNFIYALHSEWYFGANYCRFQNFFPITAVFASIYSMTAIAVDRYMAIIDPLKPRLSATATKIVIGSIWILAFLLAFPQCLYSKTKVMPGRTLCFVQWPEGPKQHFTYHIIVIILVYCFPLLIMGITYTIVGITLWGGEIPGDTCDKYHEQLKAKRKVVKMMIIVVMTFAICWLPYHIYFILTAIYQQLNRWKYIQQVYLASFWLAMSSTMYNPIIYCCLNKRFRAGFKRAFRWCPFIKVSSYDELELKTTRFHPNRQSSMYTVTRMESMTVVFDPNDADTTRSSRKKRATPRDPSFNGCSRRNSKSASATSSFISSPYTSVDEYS
As to the kind of experiment: [3H]SR142801 competition binding assay.

The mark [1] stands for this setting: hNK-3 receptor affinity, membranes from HEK293 cells transiently expressing recombinant human NK3 receptor, [3H]SR142801, Cheng-Prussoff, read-out: Data Ki.

With `CC1CC1COC(=O)N(C)[C@H]1CN(C(=O)C2CCN(C(=O)C3(C)CC3)CC2)C[C@@H]1c1ccc(Cl)c(Cl)c1` (mixture of isomers) [Example 92, rac-{(3R,4S)-4-(3,4-Dichloro-phenyl)-1-[1-(1-methyl-cyclopropanecarbonyl)-piperidine-4-carbonyl]-pyrrolidin-3-yl}-methyl-carbamic acid 2-methyl-cyclopropylmethyl ester], the Ki amounted to 2.3 nM.

Take `CN(C(=O)OCc1ccc(F)cc1)[C@H]1CN(C(=O)C2CCN(C(=O)C3(C)CC3)CC2)C[C@@H]1c1ccc(Cl)c(Cl)c1` (racemic) [Example 95, rac-{(3R,4S)-4-(3,4-Dichloro-phenyl)-1-[1-(1-methyl-cyclopropanecarbonyl)-piperidine-4-carbonyl]-pyrrolidin-3-yl}-methyl-carbamic acid 4-fluoro-benzyl ester]: the Ki stood at 5.8 nM.

On to `CN(C(=O)Nc1ccc(F)cc1)[C@H]1CN(C(=O)C2CCN(C(=O)C3(C)CC3)CC2)C[C@@H]1c1ccc(Cl)cc1` (racemic) [Example 96, rac-1-{(3R,4S)-4-(4-Chloro-phenyl)-1-[1-(1-methyl-cyclopropanecarbonyl)-piperidine-4-carbonyl]-pyrrolidin-3-yl}-3-(4-fluoro-phenyl)-1-methyl-urea], for which the Ki under setting [1] amounted to 53.7 nM.

Regarding `CN(CCC1CC1)C(=O)N(C)[C@H]1CN(C(=O)C2CCN(C(=O)C3(C)CC3)CC2)C[C@@H]1c1ccc(Cl)c(Cl)c1` (racemic) [Example 97, rac-1-(2-Cyclopropyl-ethyl)-3-{(3R,4S)-4-(3,4-dichloro-phenyl)-1-[1-(1-methyl-cyclopropanecarbonyl)-piperidine-4-carbonyl]-pyrrolidin-3-yl}-1,3-dimethyl-urea], under setting [1], the Ki was found to be 31 nM.

In the case of `CN(C(=O)OCCC(C)(C)O)[C@H]1CN(C(=O)C2CCN(C(=O)C3(C)CC3)CC2)C[C@@H]1c1ccc(Cl)c(Cl)c1` (racemic) [Example 98, rac-{(3R,4S)-4-(3,4-Dichloro-phenyl)-1-[1-(1-methyl-cyclopropanecarbonyl)-piperidine-4-carbonyl]-pyrrolidin-3-yl}-methyl-carbamic acid 3-hydroxy-3-methyl-butyl ester], the Ki was determined as 48 nM.

As to `CN(C(=O)OCC1CCC(F)(F)CC1)[C@H]1CN(C(=O)C2CCN(C(=O)C3(C)CC3)CC2)C[C@@H]1c1ccc(Cl)c(Cl)c1` (racemic) [Example 99, rac {(3R,4S)-4-(3,4-Dichloro-phenyl)-1-[1-(1-methyl-cyclopropanecarbonyl)-piperidine-4-carbonyl]-pyrrolidin-3-yl}-methyl-carbamic acid 4,4-difluoro-cyclohexylmethyl ester], the Ki came out at 1.6 nM.

`CN(C(=O)OC1CCC(F)(F)CC1)[C@H]1CN(C(=O)C2CCN(C(=O)C3(C)CC3)CC2)C[C@@H]1c1ccc(Cl)c(Cl)c1` (racemic) [Example 102, rac-{(3R,4S)-4-(3,4-Dichloro-phenyl)-1-[1-(1-methyl-cyclopropanecarbonyl)-piperidine-4-carbonyl]-pyrrolidin-3-yl}-methyl-carbamic acid 4,4-difluoro-cyclohexyl ester]: the Ki worked out at 4 nM.

Turning to `CN(C(=O)OC1CCC(C(F)(F)F)CC1)[C@H]1CN(C(=O)C2CCN(C(=O)C3(C)CC3)CC2)C[C@@H]1c1ccc(Cl)c(Cl)c1` (mixture of isomers) [Example 103, rac-{(3R,4S)-4-(3,4-Dichloro-phenyl)-1-[1-(1-methyl-cyclopropanecarbonyl)-piperidine-4-carbonyl]-pyrrolidin-3-yl}-methyl-carbamic acid 4-trifluoromethyl-cyclohexyl ester], under setting [1], the Ki worked out at 1.8 nM.

On to `CN(C(=O)OCC1CCC(F)(F)C1)[C@H]1CN(C(=O)C2CCN(C(=O)C3(C)CC3)CC2)C[C@@H]1c1ccc(Cl)c(Cl)c1` (mixture of isomers) [Example 111, rac-{(3R,4S)-4-(3,4-Dichloro-phenyl)-1-[1-(1-methyl-cyclopropanecarbonyl)-piperidine-4-carbonyl]-pyrrolidin-3-yl}-methyl-carbamic acid 3,3-difluoro-cyclopentylmethyl ester], for which the Ki amounted to 4.4 nM.

For `CN(C(=O)Oc1ccc(F)cc1)[C@@H]1CN(C(=O)C2CCN(c3ccc(C(=O)NC(C)(C)C)cn3)CC2)C[C@H]1c1ccc(Cl)cc1` (racemic) [Example 120, rac-[(3S,4R)-1-(5′-tert-Butylcarbamoyl-3,4,5,6-tetrahydro-2H-[1,2′]bipyridinyl-4-carbonyl)-4-(4-chloro-phenyl)-pyrrolidin-3-yl]-methyl-carbamic acid 4-fluoro-phenyl ester], the Ki was 1.6 nM.

Regarding `CN(C(=O)O[C@H]1CC[C@H](C(F)(F)F)CC1)[C@@H]1CN(C(=O)C2CCN(c3ccc(C(=O)NC(C)(C)C)cn3)CC2)C[C@H]1c1ccc(Cl)cc1` (racemic) [Example 121, rac-[(3S,4R)-1-(5′-tert-Butylcarbamoyl-3,4,5,6-tetrahydro-2H-[1,2′]bipyridinyl-4-carbonyl)-4-(4-chloro-phenyl)-pyrrolidin-3-yl]-methyl-carbamic acid 4-trifluoromethyl-cyclohexyl ester], the Ki worked out at 6.6 nM.

Consider `CN(C(=O)OCCCC(F)(F)F)[C@@H]1CN(C(=O)C2CCN(c3ccc(C(=O)NC(C)(C)C)cn3)CC2)C[C@H]1c1ccc(Cl)cc1` (racemic) [Example 124, rac-[(3S,4R)-1-(5′-tert-Butylcarbamoyl-3,4,5,6-tetrahydro-2H-[1,2′]bipyridinyl-4-carbonyl)-4-(4-chloro-phenyl)-pyrrolidin-3-yl]-methyl-carbamic acid 4,4,4-trifluoro-butyl ester], for which the Ki was 40.2 nM.

Consider `CN(C(=O)OCCC(F)(F)F)[C@H]1CN(C(=O)C2CCN(C(=O)C3(C)CC3)CC2)C[C@@H]1c1ccc(Cl)c(Cl)c1` (single isomer, unassigned) [Example 29], for which the Ki was 14.9 nM.

With `CN(C(=O)Oc1ccc(F)cc1)[C@H]1CN(C(=O)[C@H]2CC[C@H](O)CC2)C[C@@H]1c1ccc(Cl)c(Cl)c1` (stereo in doubt) [Example 45, [(3R,4S)-4-(3,4-Dichloro-phenyl)-1-(trans-4-hydroxy-cyclohexanecarbonyl)-pyrrolidin-3-yl]-methyl-carbamic acid 4-fluoro-phenyl ester], the Ki stood at 3.2 nM.

Regarding `CN(C(=O)OCCC1CC1)[C@H]1CN(C(=O)C2CCN(C(=O)C3(C)CC3)CC2)C[C@@H]1c1ccc(Cl)cc1` (stereo in doubt) [Example 54, rac-{(3R,4S)-4-(4-Chloro-phenyl)-1-[1-(1-methyl-cyclopropanecarbonyl)-piperidine-4-carbonyl]-pyrrolidin-3-yl}-methyl-carbamic acid 2-cyclopropyl-ethyl ester], under setting [1], the Ki is 26.4 nM.

`CN(C(=O)Oc1ccc(F)cc1)[C@@H]1CN(C(=O)C2CCN(C(=O)C3(C)CC3)CC2)C[C@@H]1c1ccc(Cl)c(Cl)c1` (stereo in doubt) [Example 62, {(3S,4S)-4-(3,4-Dichloro-phenyl)-1-[1-(1-methyl-cyclopropanecarbonyl)-piperidine-4-carbonyl]-pyrrolidin-3-yl}-methyl-carbamic acid 4-fluoro-phenyl ester]: the Ki was 31.4 nM.

Consider `CN(C(=O)OCCC1CC1)[C@@H]1CN(C(=O)C2CCN(C(=O)C3(C)CC3)CC2)C[C@H]1c1ccc(Cl)cc1` (stereo in doubt) [Example 64, {(3S,4R)-4-(4-Chloro-phenyl)-1-[1-(1-methyl-cyclopropanecarbonyl)-piperidine-4-carbonyl]-pyrrolidin-3-yl}-methyl-carbamic acid 2-cyclopropyl-ethyl ester], for which the Ki under setting [1] came to 15.2 nM.

For `CN(C(=O)OCCC(F)(F)F)[C@H]1CN(C(=O)C2CCN(C(=O)C3(C)CC3)CC2)C[C@@H]1c1ccc(Cl)c(Cl)c1` (stereo in doubt) [Example 86, {(3R,4S)-4-(3,4-dichloro-phenyl)-1-[1-(1-methyl-cyclopropanecarbonyl)-piperidine-4-carbonyl]-pyrrolidin-3-yl}-methyl-carbamic acid 3,3,3-trifluoro-propyl ester], the inhibition constant Ki was 60.4 nM.

Take `CN(C(=O)OCCC(F)(F)F)[C@@H]1CN(C(=O)C2CCN(C(=O)C3(C)CC3)CC2)C[C@H]1c1ccc(Cl)c(Cl)c1` (stereo in doubt) [Example 87, {(3S,4R)-4-(3,4-Dichloro-phenyl)-1-[1-(1-methyl-cyclopropanecarbonyl)-piperidine-4-carbonyl]-pyrrolidin-3-yl}-methyl-carbamic acid 3,3,3-trifluoro-propyl ester]: the inhibitory constant (Ki) was found to be 9.2 nM.

Turning to `CN(C(=O)O[C@H]1CC[C@H](C(F)(F)F)CC1)[C@@H]1CN(C(=O)C2CCN(C3CCOCC3)CC2)CC1c1ccc(Cl)c(Cl)c1` (stereo in doubt) [Example 123, {(3S,4R)-4-(3,4-Dichloro-phenyl)-1-[1-(tetrahydro-pyran-4-yl)-piperidine-4-carbonyl]-pyrrolidin-3-yl}-methyl-carbamic acid 4-trifluoromethyl-cyclohexyl ester], the Ki came out at 2.8 nM.

`CN(C(=O)Oc1ccc(F)cc1)[C@H]1CN(C(=O)C2CCN(C(=O)C3(C)CC3)CC2)C[C@@H]1c1ccc(Cl)c(Cl)c1` [Example 5, {(3R,4S)-4-(3,4-Dichloro-phenyl)-1-[1-(1-methyl-cyclopropanecarbonyl)-piperidine-4-carbonyl]-pyrrolidin-3-yl}-methyl-carbamic acid 4-fluoro-phenyl ester]: the Ki stood at 56.2 nM.
